Test [1] addresses Acetylcholinesterase (Homo sapiens) (UniProt P22303). The note with it: at 10 µM.
Description: Inhibition of acetylcholinesterase at 10 uM by Ellman's method
Test [2] addresses T1, Amine oxidase [flavin-containing] B (Homo sapiens, UniProt P27338).
T1 sequence (P27338 whole entry): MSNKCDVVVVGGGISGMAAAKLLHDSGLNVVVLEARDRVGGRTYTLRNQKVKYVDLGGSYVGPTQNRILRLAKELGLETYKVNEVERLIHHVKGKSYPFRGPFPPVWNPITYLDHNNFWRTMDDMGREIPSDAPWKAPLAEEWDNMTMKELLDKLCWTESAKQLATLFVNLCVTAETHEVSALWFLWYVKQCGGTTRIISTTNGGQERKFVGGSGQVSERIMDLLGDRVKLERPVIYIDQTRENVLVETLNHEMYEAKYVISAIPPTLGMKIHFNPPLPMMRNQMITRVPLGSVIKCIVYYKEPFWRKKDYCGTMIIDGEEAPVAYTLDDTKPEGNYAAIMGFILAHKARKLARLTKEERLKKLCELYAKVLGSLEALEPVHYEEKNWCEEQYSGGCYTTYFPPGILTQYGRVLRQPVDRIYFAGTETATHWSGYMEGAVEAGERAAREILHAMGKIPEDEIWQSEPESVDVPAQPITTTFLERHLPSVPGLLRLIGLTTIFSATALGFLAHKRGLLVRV
Put plainly: Inhibition of monoamine oxidase B at 10 uM. The note with it: read-out: INH.

The target in test [3] is T2, Amine oxidase [flavin-containing] A (Homo sapiens, UniProt P21397).
T2 sequence (P21397 whole entry): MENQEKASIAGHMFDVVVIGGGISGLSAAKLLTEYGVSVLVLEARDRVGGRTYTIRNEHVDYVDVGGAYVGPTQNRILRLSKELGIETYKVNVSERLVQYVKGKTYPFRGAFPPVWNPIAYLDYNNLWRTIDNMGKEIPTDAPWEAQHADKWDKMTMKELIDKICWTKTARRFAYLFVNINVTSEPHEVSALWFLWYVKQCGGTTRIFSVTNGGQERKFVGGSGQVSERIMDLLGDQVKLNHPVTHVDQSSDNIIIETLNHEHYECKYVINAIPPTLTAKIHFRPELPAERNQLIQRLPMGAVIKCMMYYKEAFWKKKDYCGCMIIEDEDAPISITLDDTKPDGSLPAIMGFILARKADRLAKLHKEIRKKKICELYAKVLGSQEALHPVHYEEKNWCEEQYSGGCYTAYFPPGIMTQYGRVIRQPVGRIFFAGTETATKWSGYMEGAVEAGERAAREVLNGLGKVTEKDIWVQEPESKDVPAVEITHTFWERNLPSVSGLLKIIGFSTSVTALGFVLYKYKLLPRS
As to the kind of experiment: Inhibition of monoamine oxidase A at 10 uM. The note with it: read-out: INH.

We go through eleven compounds from ChEMBL document CHEMBL1149880, “Xanthones from Gentianella amarella ssp. acuta with acetylcholinesterase and monoamine oxidase inhibitory activities” (J Nat Prod, 2008).

Structures are written as SMILES.

Chain of Acetylcholinesterase (Homo sapiens) (P22303 whole entry): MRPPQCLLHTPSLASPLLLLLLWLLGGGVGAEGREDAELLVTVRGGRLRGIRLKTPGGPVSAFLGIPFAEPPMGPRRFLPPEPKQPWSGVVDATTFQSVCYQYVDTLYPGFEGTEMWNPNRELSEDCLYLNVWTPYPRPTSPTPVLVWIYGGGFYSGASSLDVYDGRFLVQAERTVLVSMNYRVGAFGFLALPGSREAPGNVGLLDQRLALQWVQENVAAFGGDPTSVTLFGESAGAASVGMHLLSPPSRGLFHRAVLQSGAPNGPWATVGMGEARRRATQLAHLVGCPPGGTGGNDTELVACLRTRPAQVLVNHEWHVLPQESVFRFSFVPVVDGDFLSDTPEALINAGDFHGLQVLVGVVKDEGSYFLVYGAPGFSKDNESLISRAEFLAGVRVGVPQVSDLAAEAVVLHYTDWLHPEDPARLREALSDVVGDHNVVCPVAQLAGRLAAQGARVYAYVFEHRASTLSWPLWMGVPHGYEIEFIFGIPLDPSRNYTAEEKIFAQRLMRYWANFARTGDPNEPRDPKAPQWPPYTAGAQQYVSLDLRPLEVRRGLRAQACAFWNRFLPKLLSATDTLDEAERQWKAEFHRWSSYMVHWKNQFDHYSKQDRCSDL

On to `COc1ccc(O[C@@H]2O[C@H](CO)[C@@H](O)[C@H](O)[C@H]2O)c2c(=O)c3c(O)c(-c4cc(O)c5oc6cc(O)cc(O)c6c(=O)c5c4O)c(O)cc3oc12`, for which the inhibition in test [1] is 12.3%. Further, the values for the inhibition at 10 µM in test [2] and in test [3] were 39.1% and 21.4%, respectively.
In test [1], `COc1ccc(O)c2c(=O)c3c(O)cc(O[C@@H]4O[C@H](CO)[C@@H](O)[C@H](O)[C@H]4O)c(OC)c3oc12` showed an inhibition of 17.6%. Besides, the figures for the inhibition at 10 µM in test [2] and in test [3] were 47.8% and 40.2%, respectively.
The corresponding values for `O=c1c2c(O)c(-c3cc(O)c4oc5cc(O)cc(O)c5c(=O)c4c3O)c(O)cc2oc2c(O)ccc(O)c12` are 20.9%, 41.1% and 14.8%.
In test [1], `COc1c(O)ccc2c(=O)c3c(OC4O[C@H](CO)[C@@H](O)[C@H](O)[C@H]4O)cc(O)c(OC)c3oc12` (some centres not stated) had an inhibition of 1.5%. The inhibition at 10 µM came out at 70.5% in test [2] and 15% in test [3].
For `COc1cc(O)c2c(=O)c3c(O)ccc(O)c3oc2c1` [BELLIDIFOLIN], in that order: 21.9%, 65.2% and 98.9%.
In the case of `O=c1c2c(O)cc(O)cc2oc2c(O)ccc(O)c12` [DEMETHYLBELLIDIFOLIN], the inhibition in test [1] came out at 17.5%. Further, the inhibition at 10 µM in test [2] came out at 59%; in test [3], 90.5%.
The compound `O=c1c2c(O)cc(O)cc2oc2c(O)ccc(O[C@@H]3O[C@H](CO)[C@@H](O)[C@H](O)[C@H]3O)c12` [NORSWERTIANOLIN] had an inhibition in test [1] of 4.4%. The inhibition at 10 µM worked out at 28.9% in test [2] and 12.2% in test [3].
For the compound `C#CCN(C)Cc1ccccc1` [PARGYLINE], the results for the inhibition at 10 µM in test [2] and in test [3] were 98.2% and 60%, respectively.
`COc1cc(O)c2c(=O)c3c(O[C@@H]4O[C@H](CO)[C@@H](O)[C@H](O)[C@H]4O)ccc(O)c3oc2c1` [SWERTIANOLIN] yielded an inhibition in test [1] of 9.8%. Also, the inhibition at 10 µM was 93.6% in test [2] and 43.8% in test [3].
For `COc1cc(O)c2c(=O)c3c(O)c(O[C@@H]4O[C@H](CO)[C@@H](O)[C@H](O)[C@H]4O)ccc3oc2c1OC` [TRIPTEXANTHOSIDE C], the inhibition in test [1] turned out to be 43.7%. The inhibition at 10 µM in test [2] worked out at 38.8%; in test [3], 13.4%.
The corresponding values for `COc1cc(O)c2c(=O)c3cc(O[C@@H]4O[C@H](CO)[C@@H](O)[C@H](O)[C@H]4O)ccc3oc2c1OC` [VERATRILOSIDE] are 28.2%, 56% and 19.4%.
